{
  "source": "patent US20040224960A1",
  "about": "“Pharmaceutical compositions and methods for their use” (Agouron Pharmaceuticals, Inc., priority 2003, published 2004)",
  "target": "T1, cytochrome P450 2D6 (Homo sapiens, UniProt P10635)",
  "T1 construct": "were incubated with human liver microsomes (0.25 mg/mL protein and 0.075 μM P450); from tissue; host or cells: human liver microsomes",
  "T1 sequence (P10635 whole entry)": "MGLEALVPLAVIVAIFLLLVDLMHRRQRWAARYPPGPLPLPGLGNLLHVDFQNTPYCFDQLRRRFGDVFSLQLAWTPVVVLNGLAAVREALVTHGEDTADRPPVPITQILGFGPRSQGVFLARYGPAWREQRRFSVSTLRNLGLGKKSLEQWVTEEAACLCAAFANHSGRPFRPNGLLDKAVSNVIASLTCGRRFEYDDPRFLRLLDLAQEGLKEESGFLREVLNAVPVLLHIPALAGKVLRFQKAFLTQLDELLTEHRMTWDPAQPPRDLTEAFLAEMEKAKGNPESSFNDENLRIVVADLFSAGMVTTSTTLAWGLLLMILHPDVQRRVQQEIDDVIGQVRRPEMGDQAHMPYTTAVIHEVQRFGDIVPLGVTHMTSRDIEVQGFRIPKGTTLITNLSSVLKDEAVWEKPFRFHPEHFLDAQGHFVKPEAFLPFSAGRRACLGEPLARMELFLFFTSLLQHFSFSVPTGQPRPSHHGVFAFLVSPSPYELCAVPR",
  "test": "inhibition of cytochrome P450 2D6 in human liver microsomes (dextromethorphan to dextrorphan)",
  "format": "biochemical",
  "settings": "human liver microsomes 0.25 mg/mL protein, 8 μM dextromethorphan, 1 mM NADPH, 37° C., 20 min; average IC50 with number of tests in parentheses",
  "method": "Following the 20 min incubation, the reaction was quenched by addition of 200 μL acetonitrile containing 0.1 μM buspirone as an internal standard. The samples were then vortex mixed and centrifuged to pellet the protein. The supernantant was transferred, dried under nitrogen flow and reconstituted in mobile phase. A 10 uL aliquot was injected onto a gradient reversed phase HPLC system with a Phenomenex Luna C18 (50×4.6 mm) column. Dextrorphan, formed by the metabolism of dextromethorphan by CYP 2D6, was monitored using tandem MS/MS in the APCl mode with the MRM transition of m/z 258.3>156.6. Remaining-CYP2D6 activity (%) was determined for the samples relative to a vehicle control. The data were analyzed by non-linear regression according to % R=% Rmax[formula](1−(C/(C+IC50))) using WinNonLin (version 4.0.1), where % R is the % remaining CYP 2D6 activity relative to the vehicle control, C is the concentration of the compound of interest, and IC50 is the inhibitory concentration of the compound of interest giving 50% inhibition of maximal % remaining activity. The data are reported as IC50s (μM). If more than one assay was performed for a particular compound, the average IC50 is reported with the number of tests in parentheses.",
  "data": [
    {"smiles": "Cc1cnc2nc(CC3=C(O)CC(CCc4cc(F)c(C5(C#N)CC5)c(F)c4)(C4CCCC4)OC3=O)nn2c1", "note": "(centres unmarked) [Compound 30, 1-[4-(2-{2-cyclopentyl-4-hydroxy-5-[(6-methyl[1,2,4]triazolo[1,5-a]pyrimidin-2-yl)methyl]-6-oxo-3,6-dihydro-2H-pyran-2-yl}ethyl)-2,6-difluorophenyl]cyclopropanecarbonitrile]", "values": [
      {"measurement": "IC50", "result": 190, "unit": "nM"}
    ]},
    {"smiles": "COc1cc(C(C)(C)C#N)c(F)cc1CCC1(C2CCCC2)CC(O)=C(Cc2nc3ncc(C)cn3n2)C(=O)O1", "note": "(centres unmarked) [Compound 33, 2-[4-(2-{2-cyclopentyl-4-hydroxy-5-[(6-methyl[1,2,4]triazolo[1,5-a]pyrimidin-2-yl)methyl]-6-oxo-3,6-dihydro-2H-pyran-2-yl}ethyl)-2-fluoro-5-methoxyphenyl]-2-methylpropanenitrile]", "values": [
      {"measurement": "IC50", "result": "< 74", "unit": "nM"}
    ]}
  ]
}
